The nature of this data set: Aqueous solubility of compound. Type of data set: physicochemical. The note with it: buffer.

Where a SMILES comes first, the peptide text is derived from it. Bridges are numbered along the chain shown (N, C = ends). The star is where a group is joined. Acetyl(2-naphthyloxy) = O=C(COc1ccc2ccccc2c1)*

With `CC[C@H](C)[C@H](NC(=O)[C@H](CCCNC(=N)N)NC(=O)[C@H](CO)NC(=O)[C@H](Cc1ccc(O)cc1)NC(=O)[C@H](CCCNC(=N)N)NC(=O)[C@@H]1CSSC[C@H](NC(=O)COc2ccc3ccccc3c2)C(=O)N[C@@H](CCC(N)=O)C(=O)N[C@@H](CC(N)=O)C(=O)N1)C(=O)N[C@@H](CCC(=O)O)C(=O)N[C@@H](Cc1c[nH]c2ccccc12)C(=O)N[C@H](C(=O)N[C@@H](CCCCN)C(=O)N[C@H](C(=O)N[C@@H](CCC(N)=O)C(=O)N[C@H](C(=O)N[C@H](C(=O)N[C@@H](CO)C(=O)N[C@@H](CCCCN)C(=O)N[C@@H](CC(C)C)C(=O)N[C@@H](CCCNC(=N)N)C(=O)N[C@@H](CC(C)C)C(N)=O)[C@@H](C)CC)[C@@H](C)CC)[C@@H](C)CC)[C@@H](C)CC` ({Acetyl(2-naphthyloxy)}-CQNCRYSRIEWIKIQIISKLRL-NH2; disulfide 1-4), the solubility result is reported as “Insoluble”.

The values above are taken from ChEMBL document CHEMBL4480415, “Design and synthesis of potent myostatin inhibitory cyclic peptides” (Bioorg Med Chem, 2019).
